{"source": "paper PMC9897045", "about": "(ACS Omega, 2023)", "origin": "cited, not measured here", "key": {"[1]": {"system": "main protease (Mpro, 3CLpro, nsp5)", "settings": "read-out: EC50 against main protease (Mpro)"}}, "note": "pEC50: −log10 of the molar value. Like-named read-outs stand apart in the source and are kept apart here.", "data": [{"smiles": "Cn1cnc(Cn2c(=O)[nH]/c(=N\\c3cc4cn(C)nc4cc3Cl)n(Cc3cc(F)c(F)cc3F)c2=O)n1", "note": "[S-217622, (6E)-6-[(6-chloro-2-methyl-2H-indazol-5-yl)imino]-3-[(1-methyl-1H-1,2,4-triazol-3-yl)methyl]-1-(2,4,5-trifluorobenzyl)-1,3,5-triazinane-2,4-dione]", "values": [{"measurement": "pEC50", "setting": "[1]", "value": 7.89}, {"measurement": "pEC50", "setting": "SARS-CoV-2; read-out: EC50 against SARS-CoV-2, range over strains, CPE EC50", "value": "6.30 to 6.54"}, {"measurement": "pEC50", "setting": "SARS-CoV-2; read-out: EC50 against SARS-CoV-2 Alpha strain, strain QK002", "value": 6.48}, {"measurement": "pEC50", "setting": "SARS-CoV-2; read-out: EC50 against SARS-CoV-2 Beta strain, strain TY8-612", "value": 6.40}, {"measurement": "pEC50", "setting": "SARS-CoV-2; read-out: EC50 against SARS-CoV-2 Delta strain, strain TY11-927-P1", "value": 6.39}, {"measurement": "pEC50", "setting": "SARS-CoV-2; read-out: EC50 against SARS-CoV-2 Gamma strain, strain TY7-501", "value": 6.30}, {"measurement": "pEC50", "setting": "SARS-CoV-2; read-out: EC50 against SARS-CoV-2 Omicron strain, strain TY38-873", "value": 6.54}]}]}
